Patent publication US20040023211A1, “System and method for optimizing drug theraphy for the treatment of diseases” (priority 2000, published 2004)
Like-named read-outs stand apart in the source and are kept apart here.

Legend:
[1] = Amprenavir trough plasma concentration (Cmin, 12 hours after dosing) by LC-MS/MS in treatment-experienced patients; assay type: in vivo, adults infected with HIV-1; conditions: amprenavir 1200 mg bid with abacavir, efavirenz and ritonavir or nelfinavir, 17 patients
Procedure: Patients were enrolled into three parallel treatment groups that included abacavir 300 mg bid, amprenavir 1200 mg bid, and efavirenz 600 mg daily with either low dose ritonavir at 200 mg BID, high dose ritonavir at 500 mg bid, or nelfinavir 1250 mg bid.
Genotyping (VircoGEN II™, VIRCO) and VIRTUAL PHENOTYPE™ were performed on baseline samples. Viral load data were collected at baseline (mean of two pre-therapy samples) and at week 24. Serial pharmacokinetic samples were collected over 12 hours after week 3 for ritonavir-boosted regimens and after week 2 for nelfinavir-boosted regimens.
Amprenavir concentrations in plasma were determined by a validated LC-MS/MS method.
For amprenavir, nelfinavir, and ritonavir, the concentration 12 hours after dosing was used as the Cmin. For each drug, relationships between viral load change at week 24 and the Cmin, fold-change in resistance, and NIQ were fit to a sigmoidal maximum effect model.

HIV-1 = assay type: in vivo, adults infected with HIV-1; conditions: change in viral load at week 24, sigmoidal Emax model, p<0.05
Procedure: The normalized inhibitory quotient (NIQ) was determined as: [formula]
Where the IQ in an individual patient (IQpatient) was calculated as ratio of the patient's trough concentration (Cmin) to the susceptibility of the patient's virus to the drug, expressed as fold change compared to wild type virus (Virtual Phenotype). The IQpt was then related to the reference inhibitory quotient (IQref), in which the mean population trough concentration of the drug from the product label was divided by the cut-off value of the fold change for susceptible viruses.
For amprenavir, nelfinavir, and ritonavir, the concentration 12 hours after dosing was used as the Cmin. […]

HIV = conditions: cited from earlier work; for % of patients with viral load below 400 copies/mL at week 24: lopinavir plus efavirenz and 2 NRTIs, 56 patients

For `CC(C)CN(C[C@@H](O)[C@H](Cc1ccccc1)NC(=O)O[C@H]1CCOC1)S(=O)(=O)c1ccc(N)cc1` [Amprenavir, amprenavir], the “Cmin, range” value [1] was “(264-3453) ng/ml” and the “correlation of NIQ with outcome at 24 weeks” value (HIV-1) was “correlated with outcome at 24 weeks”.

For `Cc1cccc(C)c1OCC(=O)N[C@@H](Cc1ccccc1)[C@@H](O)C[C@H](Cc1ccccc1)NC(=O)[C@H](C(C)C)N1CCCNC1=O` [lopinavir], the “% of patients with viral load below 400 copies/mL at week 24” value (“% of patients” for short) (HIV; lopinavir IQ 4-15) is given as 80%, the “% of patients” value (HIV; lopinavir IQ <4) is given as 70% and the “% of patients” value (HIV; lopinavir IQ >15) is given as 100%. For the same compound, the “correlation of trough concentration alone with virologic outcome” value (HIV; lopinavir trough concentration alone, week 24) was “no correlation with virologic outcome was found”.
